According to patent US20110207741A1, “Activation of the Renin-Angiotensin System (RAS) and Sudden Cardiac Death” (THE BOARD OF TRUSTEES OF THE UNIVERSITY OF ILLINOIS, priority 2010, published 2011):
Values joined by “and” are separate entries in the source; they are usually repeats but may differ in a detail not shown here. Equal entries are not always repeated.

Assays:
ACE8/8 mice [1] = experiment: Kaplan-Meier survival analysis of ACE8/8 mice (sudden cardiac death); format: in vivo, mouse; settings: 1.5 mg/kg intraperitoneal twice weekly, 30 days of treatment and observation, untreated ACE8/8 10.2±1.5 days
Procedure: Previously, a transgenic mouse model of RAS activation was developed by overexpressing ACE restricted to the heart (ACE8/8 mice) via replacement of the somatic ACE promoter with the cardiac-specific α-myosin heavy chain promoter (9). These mice (ACE8/8) are not hypertensive, have structurally normal hearts with a normal left ventricular ejection fraction (LVEF), and have no ventricular fibrosis.
(§1) The animal experiments were conducted according to the National Institutes of Health (NIH) Guide for the Care and Use of Experimental Animals and were approved by the University of Illinois Institutional Animal Care and Use Committee. Mice of both sexes were treated with 1.5-mg/kg PP1 (Enzo Life Sciences, Plymouth Meeting, Pa.), a specific inhibitor of c-Src tyrosine kinase, twice weekly for 4 consecutive weeks by intraperitoneal injection (21-23). PP3 (Enzo Life Sciences) was administered intraperitoneally at the same dose (1.5 mg/kg twice weekly for 4 consecutive weeks). The treatment of all animals was initiated when the mice were 30 days old.
The values are presented as the mean±the SEM. […] The survival data were analyzed with the Kaplan-Meier method, and the value was calculated with the log-rank test. The correlation was assessed with the Pearson correlation coefficient method.

wild-type mice = experiment: Treatment of wild-type mice with PP1 (deaths, adverse reactions); format: in vivo, mouse
Procedure: as §1

ACE8/8 mice [2] = experiment: Electrophysiology study: VT inducibility by burst pacing; format: in vivo, mouse; settings: treated ACE8/8 mice, untreated ACE8/8 86.9%, wild-type 3.3%
Procedure: as §1
The mice were anesthetized with an intraperitoneal injection of ketamine (100 mg/kg) and xylazine (5 mg/kg). After cutdown, a 1.1-F catheter with 0.5-mm interelectrode spacing (EPR 800, Millar Instruments, Houston, Tex.) was placed into the right jugular vein and was advanced into the right ventricle. A constant current stimulator (A320, World Precision Instruments, Sarasota, Fla.) connected to a laptop computer was used for cardiac stimulation. During the experiment, body temperature was maintained at 37° C. with a warming pad. Burst pacing at cycle lengths of 100 to 50 ms was used to test for VT inducibility. A rhythm with more than 3 consecutive ventricular beats was considered to be VT.

c-Src = target: T1, c-Src (Mus musculus, UniProt P05480); experiment: Western blot of ventricular tissue, total c-Src; format: in vivo; settings: four weeks i.p. treatment, corrected for GAPDH
T1 construct: The ventricular tissue was homogenized in a buffer; from tissue; host or cells: mouse ventricular tissue (wild-type and ACE8/8 mice)
T1 sequence (P05480 whole entry): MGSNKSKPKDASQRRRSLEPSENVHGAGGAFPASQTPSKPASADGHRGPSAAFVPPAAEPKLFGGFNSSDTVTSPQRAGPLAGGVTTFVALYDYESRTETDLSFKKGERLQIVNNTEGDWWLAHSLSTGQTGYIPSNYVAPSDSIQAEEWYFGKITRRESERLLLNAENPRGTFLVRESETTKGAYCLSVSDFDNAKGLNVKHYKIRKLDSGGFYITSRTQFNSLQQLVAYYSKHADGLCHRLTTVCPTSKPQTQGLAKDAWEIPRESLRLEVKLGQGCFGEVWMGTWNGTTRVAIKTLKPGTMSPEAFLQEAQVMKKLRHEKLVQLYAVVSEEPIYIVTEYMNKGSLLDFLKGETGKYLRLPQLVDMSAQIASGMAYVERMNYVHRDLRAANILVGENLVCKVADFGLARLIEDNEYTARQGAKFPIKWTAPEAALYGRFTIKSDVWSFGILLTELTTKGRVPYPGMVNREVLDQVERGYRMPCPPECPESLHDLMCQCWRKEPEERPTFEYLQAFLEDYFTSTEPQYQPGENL
Procedure: as §1
(§2) The mice were killed, and their hearts were excised. The ventricular tissue was homogenized in a buffer containing 20 mM of tris-(hydroxymethyl)-aminomethane (Tris-C1) (pH, 7.4), 150 mM of sodium chloride (NaCl), 2.5 mM of ethylenediamine tetraacetic acid (EDTA), 1% Triton-100, 10 μL/mL of phenylmethylsulfonyl fluoride (PMSF), 10 μL/mL of protein inhibitor cocktail (Pierce, Rockford, Ill.), and 10 μL/mL of phosphatase inhibitor cocktail II (Sigma-Aldrich, St. Louis, Mo.). Protein samples (5 to 20 μg) were separated via 10% sodium dodecyl sulfate polyacrylamide gel electrophoresis (SDS-PAGE) and were transferred to nitrocellulose membranes. […] The radiographic film images were scanned and analyzed with NIH ImageJ software.

[3] = target: T2, phosphorylated (Tyr 416) c-Src (Mus musculus, UniProt P05480); experiment: Western blot of ventricular tissue, phospho-(Tyr416) c-Src; format: in vivo; settings: four weeks i.p. treatment, corrected for GAPDH
T2 construct: The ventricular tissue was homogenized in a buffer; from tissue; host or cells: mouse ventricular tissue (wild-type and ACE8/8 mice)
T2 sequence (P05480 whole entry): as above
Procedure: as §1, §2

Cx43 [4] = experiment: Western blot of ventricular tissue, Cx43; format: in vivo, mouse
Procedure: as §1
The mice were killed, and their hearts were excised. The ventricular tissue was homogenized in a buffer containing 20 mM of tris-(hydroxymethyl)-aminomethane (Tris-C1) (pH, 7.4), 150 mM of sodium chloride (NaCl), 2.5 mM of ethylenediamine tetraacetic acid (EDTA), 1% Triton-100, 10 μL/mL of phenylmethylsulfonyl fluoride (PMSF), 10 μL/mL of protein inhibitor cocktail (Pierce, Rockford, Ill.), and 10 μL/mL of phosphatase inhibitor cocktail II (Sigma-Aldrich, St. Louis, Mo.). Protein samples (5 to 20 μg) were separated via 10% sodium dodecyl sulfate polyacrylamide gel electrophoresis (SDS-PAGE) and were transferred to nitrocellulose membranes. The membranes were blotted with the primary antibodies against c-Src, phosphorylated (Tyr 416) c-Src, and Cx43 (Cell Signaling, Danvers, Mass.). For a loading control, the membranes were blotted with a primary antibody against glyceraldehyde-3-phosphate dehydrogenase (GAPDH; Santa Cruz Biotech, Santa Cruz, Calif.). After treatment with secondary antirabbit or antimouse antibodies, imaging was performed with enhanced chemiluminescence. The radiographic film images were scanned and analyzed with NIH ImageJ software.

Cx43 [5] = experiment: Immunohistochemistry (immunostaining) for Cx43 in mouse hearts; format: in vivo
Procedure: as §1
The mouse hearts were fixed in 10% formalin, after which 8-μm thick sections were blocked for 1 hour at room temperature and were then incubated with anti-Cx43 antibodies overnight at 4° C. at concentrations known to provide the best signal-to-noise ratio. The slides were reviewed with a Zeiss Axioskop microscope (Carl Zeiss, Inc, Thornwood, N.Y.), and photomicrographs with original magnification×40 were taken from the apex, the mid-left ventricle (LV), and the LV base. From each of those sites, photomicrographs were taken from the endocardium and epicardium. The Cx43 content was quantified with the use of a grid that divided the field of view into 200 squares. At the intersection points aligning with the intercalated disks, Cx43 was scored as “1” (present) or “0” (absent). The results were expressed as the percentage occupied by Cx43 in the total area examined, excluding pseudospaces. This method has been used previously to quantify levels of collagen and Cx43 in cardiac tissue (24; 25).

gap junctions = experiment: Functional assessment of Cx43: Lucifer yellow dye spread in intact heart muscle; format: in vivo, mouse; settings: hearts of treated ACE8/8 mice
Procedure: as §1
We used an established technique for measuring Cx43 function that involves fluorescent dye introduction and diffusion in intact heart muscle (26). Fresh hearts were obtained from wild-type, ACE8/8, ACE8/8 PP1-treated, and ACE8/8 PP3-treated mice. A sample from each heart was placed in phosphate buffered saline at 37° C., the anterior surface of the LV was punctured with a 27-gauge needle, and the sample was incubated with a droplet of 0.5% Lucifer yellow (LY) and a droplet of 0.5% Texas Red Dextran (TRD) in 150 mM of LiCl solution. […] Dye spread in longitudinal and transverse directions was assessed.

SMILES	mean survival time (ACE8/8 mice [1])	death in treated wild-type mice (wild-type mice; WT mice receiving PP1 1.5 mg/kg i.p. twice weekly for 4 weeks)	adverse reaction in treated wild-type mice (wild-type mice; wild-type mice, PP1 1.5 mg/kg i.p. twice weekly for 4 weeks)	VT inducibility rate (ACE8/8 mice [2])	total c-Src protein level, relative to untreated ACE8/8 mice (c-Src)	phospho-(Tyr416) c-Src protein level, relative to untreated ACE8/8 mice [3]	increase in Cx43 protein level vs untreated ACE8/8 mice (Western blot) (Cx43 [4]; ACE8/8 mice, four weeks i.p. treatment)	Cx43 level relative to normal level in wild-type mice (Western blot) (Cx43 [4]; treated ACE8/8 mice, untreated ACE8/8 36%)	increase in Cx43 level/content in ACE8/8 mouse hearts (immunostaining) (Cx43 [5]; vs untreated ACE8/8 mice)	overall Lucifer yellow dye spread (gap junctions; untreated ACE8/8 0.14±0.01 mm, WT 0.21±0.02 mm)	effect on total Cx43 protein level (Western blot), in words (Cx43 [4]; ACE8/8 mice vs untreated ACE8/8)	Cx43 level, ratio of stained area for Cx43 to total field of view (Cx43 [5]; treated ACE8/8 mice, untreated ACE8/8 5.4±0.7%, wild-type 18.3±0.6%)	effect on Cx43 level at the gap junctions (immunostaining), in words (Cx43 [5]; vs untreated ACE8/8 mice)	effect on dye diffusion, in words (gap junctions)
Cc1ccc(-c2nn(C(C)(C)C)c3ncnc(N)c23)cc1 [PP1, 1-(1,1-dimethylethyl)-1-(4-methylphenyl)-1H-pyrazolo[3,4-d]pyrimidin-4-amine]	24.7 ± 0.2 days	No death happened	not associated with any adverse reaction	50%	58%	75%	2.1 fold	68%	2 fold and 2.0 fold	0.20±0.02 mm and 0.21±0.02 mm				
Nc1ncnc2c1cnn2-c1ccccc1 [PP3, 1-phenyl-1H-pyrazolo[3,4-d]pyrimidin-4-amine]	11.2 ± 1.2 days										did not increase	6.5+/−1%	did not increase	no statistically significant effect
